Patent US12472230B2, “Peptides and methods of use thereof in treating uveitis” (Park Strategic Ventures LLC, priority 2019, dated 2025)
Values after ≈ are worked out from the molar mass of the structure shown. Residues, ends and D or L forms follow the SMILES beside them. No end group written: not given here. *: point of attachment. Myristoyl = CCCCCCCCCCCCCC(=O)*

How the values were obtained:
[1] = Solubility in HNS; assay type: physicochemical
[2] = T/2 in human plasma; assay type: in vitro ADME
[3] = tested on: release of inflammatory mediators from leukocyte cell types; assay: Release of inflammatory mediators from leukocyte cell types, MANS versus RNS; assay type: cell-based, human; conditions: each of the cell types examined; time course of 0.5-3.0 hrs
Method: In an in vitro method to inhibit or attenuate the release of a mediator of inflammation such as those described herein, each of the cell types is preincubated with a peptide compound or peptide composition of this disclosure over a range of concentrations followed by incubation of these cells by a stimulator of release of inflammatory mediators, such as phorbol ester. The percent of inhibition of release of a mediator of inflammation is determined as compared to the release of the mediator in the absence of the peptide compound or peptide composition, such as in a specrophotometric readout of a concentration of the mediator released.

| Compound | solubility [1] | half-life [2] | further results |
| --- | --- | --- | --- |
| CCCCCCCCCCCCCC(=O)NCC(=O)N[C@@H](C)C(=O)N[C@@H](CCC(N)=O)C(=O)N[C@@H](Cc1ccccc1)C(=O)N[C@@H](CO)C(=O)N[C@@H](CCCCN)C(=O)N[C@H](C(=O)N[C@@H](C)C(=O)N[C@@H](C)C(=O)N[C@@H](CCCCN)C(=O)NCC(=O)N[C@@H](CCC(=O)O)C(=O)N[C@@H](C)C(=O)N[C@@H](C)C(=O)N[C@@H](C)C(=O)N[C@@H](CCC(=O)O)C(=O)N[C@@H](CCCNC(=N)N)C(=O)N1CCC[C@H]1C(=O)NCC(=O)N[C@@H](CCC(=O)O)C(=O)N[C@@H](C)C(=O)N[C@@H](C)C(=O)N[C@H](C(=O)N[C@@H](C)C(=O)O)C(C)C)[C@@H](C)O [MANS] (Myristoyl-GAQFSKTAAKGEAAAERPGEAAVA-OH; C-terminus assumed) | < 5 mg/mL | 12 min |  |
| Ac-GAQFSKTAA-OH [BIO-10901] | > 60 mg/mL | 5 min |  |
| CC(=O)N[C@@H](C)C(=O)N[C@@H](CCCCN)C(=O)NCC(=O)N[C@@H](CCC(=O)O)C(=O)O [BIO-91201, Ac-AKGE-OH] (Ac-AKGE-OH) | 200 mg/mL (≈ 449 mM) |  |  |
| H-GAQFSKTAAK-NH2 [BIO-11005] | 100 mg/mL | 20 min |  |
| Ac-GAQFSKTA-OH [BIO-10803] | 200 mg/mL |  |  |
| BIO-11018: SEQ ID NO 106 pegylated (GAQFSKTAAK; also: PEGylated, site not given here) |  |  | Solubility in HNS [1]: >100 mg/mL |
| CC(=O)N[C@@H](C)C(=O)N[C@@H](CCCCN)C(=O)NCC(=O)N[C@@H](CCC(=O)O)C(N)=O [BIO-91202, Ac-AKGE-NH2] (Ac-AKGE-NH2) | 200 mg/mL (≈ 450 mM) |  |  |
| Ac-GAQFSKTAAKGE-NH2 [BIO-11211] | 60 mg/mL | > 156 min |  |
| CCCCCCCCCCCCCC(=O)NCC(=O)N[C@@H](C)C(=O)N[C@@H](CCC(N)=O)C(=O)N[C@@H](Cc1ccccc1)C(=O)N[C@@H](CO)C(=O)N[C@@H](CCCCN)C(=O)N[C@H](C(=O)N[C@@H](C)C(=O)N[C@@H](C)C(=O)N[C@@H](CCCCN)C(=O)O)[C@@H](C)O [BIO-11000] (Myristoyl-GAQFSKTAAK-OH) | 15 mg/mL (≈ 12.3 mM) | 72 min |  |
| CCCCCCCCCCCCCC(=O)NCC(=O)N[C@@H](C)C(=O)N[C@@H](CCC(N)=O)C(=O)N[C@@H](Cc1ccccc1)C(=O)N[C@@H](CO)C(=O)N[C@@H](CCCCN)C(=O)N[C@H](C(=O)N[C@@H](C)C(=O)N[C@@H](C)C(=O)N[C@@H](CCCCN)C(N)=O)[C@@H](C)O [BIO-11002] (Myristoyl-GAQFSKTAAK-NH2) | < 10 mg/mL |  | T/2 (human plasma), in words [2]: stable |
| CCCCCCCCCCCCCC(=O)N[C@@H](C)C(=O)N[C@@H](CCCCN)C(=O)NCC(=O)N[C@@H](CCC(=O)O)C(=O)O [BIO-91200, Ma-AKGE-OH] (Myristoyl-AKGE-OH) | ~1 mg/mL (≈ 1.63 mM) |  |  |
| GTAPAAEGAGAEVKRASAEAKQAF [RNS] |  |  | release of inflammatory mediators [3]: not |
| Ac-GAQFSKTAAKGEAAAERPGEAAVA-OH [Ac-MANS] | 125 mg/mL |  |  |
| C[C@@H]1NC(=O)CNC(=O)[C@H](CCCCN)NC(=O)[C@H](C)NC(=O)[C@H](C)NC(=O)[C@H]([C@@H](C)O)NC(=O)[C@H](CCCCN)NC(=O)[C@H](CO)NC(=O)[C@H](Cc2ccccc2)NC(=O)[C@H](CCC(N)=O)NC1=O [BIO-11007] (cyclo(GAQFSKTAAK); ring closure inferred) | 150 mg/mL (≈ 151 mM) |  |  |
